{
  "source": "patent US8969622B2",
  "about": "“Dendritic molecular intracellular transporters and methods of making and using same” (Vanderbilt University, priority 2006, dated 2015)",
  "system": "human microvascular endothelial cells (HMEC)",
  "assay": "Internalization into human microvascular endothelial cells (HMEC), temperature effect and controls",
  "type": "cell-based",
  "conditions": "10 uM, 60 min, 37° C.",
  "procedure": "The human microvascular endothelial cells (HMEC) cells were incubated with conjugates (10 uM) for 2.5 min at 4° C. or at 37° C.\nThe HMEC cells were incubated with conjugates (1 uM) for 30 min at 4° C. or at 37° C.\n(b) The HMEC cells were incubated with Boc-protected guanidinylated FD-2 (10 uM) for 60 min at 37° C.\nInternalization of FD-1 and FD-2 in mammalian cells was assessed using two different cell lines and a previously described method [Futaki, S.; Nakase, I.; Suzuki, T.; Youjun, Y.; Sugiura, Y. Biochemistry 2002, 41, 7925.] with NIH-3T3 fibroblasts and HMEC (human microvascular endothelial cells) and a Zeiss LSM 510 confocal microscope. […] [Futaki, S.; Nakase, I.; Suzuki, T.; Youjun, Y.; Sugiura, Y. Biochemistry 2002, 41, 7925.; Vivès, E.; Brodin, P.; Lebleu, B. J. Biol. Chem. 1997, 272, 16010.] Furthermore, the extent of internalization increased in an incubation time-dependent manner, and it was observed that after just 10 min, the fluorescence intensity of cells treated with FD-2 was near saturation. […] Without wishing to be bound by theory, it is believed that the length of the spacer at the terminal generation of the dendrimer can not only control the uptake rate, [Wender, P. A.; Kreider, E.; Pelkey, E. T.; Steinman, L.; Rothbard, J. B.; VanDeusen, C. L. Org. Lett. 2005, 7, 4815.] but also regulate the subcellular localization of the molecule and its putative cargo. […]",
  "data": [
    {"substance": "fluorescein isothiocyanate [free FITC]", "values": [
      {"measurement": "fluorescence of treated cells (control experiments)", "result": "no"}
    ]}
  ]
}
